In patent US5631265A, “8-substituted tetrahydro-beta-carbolines” (Eli Lilly and Company, priority 1995, dated 1997):
pKi: −log10 of the molar value. Where two headings read alike, the source gives them in different places.

Legend:
5-HT2C receptor [1] = biological target: T1, 5-HT2C receptor (Rattus norvegicus, UniProt P08909); test: Radioligand binding, Rat 2C (Table I)
T1 sequence (P08909 33-460): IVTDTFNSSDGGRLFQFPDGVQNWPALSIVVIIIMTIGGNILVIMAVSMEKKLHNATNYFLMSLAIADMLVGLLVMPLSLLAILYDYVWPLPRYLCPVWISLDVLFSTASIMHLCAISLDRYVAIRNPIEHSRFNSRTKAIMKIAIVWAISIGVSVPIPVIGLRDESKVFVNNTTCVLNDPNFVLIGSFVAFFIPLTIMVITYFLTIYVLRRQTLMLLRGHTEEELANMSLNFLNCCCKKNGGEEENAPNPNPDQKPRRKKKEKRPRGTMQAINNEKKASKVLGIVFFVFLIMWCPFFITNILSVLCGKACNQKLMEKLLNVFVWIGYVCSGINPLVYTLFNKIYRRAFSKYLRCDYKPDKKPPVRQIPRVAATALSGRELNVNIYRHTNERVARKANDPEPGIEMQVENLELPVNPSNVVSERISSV
Protocol: (§1) [^3 H]5-HT binding studies. Binding assays were automated using a Biomek 1000 (Beckman instruments, Fullerton, Calif.) and were performed in triplicate in 0.8 ml total volume. Membrane suspension, 200 μl, (0.04-0.27 mg protein) and 200 μl of drug dilution in water were added to 400 μl of 67 mM Tris-HCl, pH 7.4, containing [^3 H]5-HT, pargyline, CaCl2, and L-ascorbic acid. Final concentrations of pargyline, CaCl2 and L-ascorbic acid were 10 μM, 3 mM and 0.1%, respectively. Tubes were incubated at 37° C. for 15 min or at 0° C. for 2 hours (binding equilibria were verified for both of these conditions), then rapidly filtered using a Brandel cell harvester (Model MB-48R; Brandel, Gaithersburg, Md.) through Whatman GF/B filters which had been presoaked in 0.5% polyethylenimine and precooled with ice-cold 50 mM Tris-HCl, pH 7.4. The filters were then washed rapidly four times with one ml ice-cold 50 mM Tris-HCl, pH 7.4. The amount of [^3 H]5-HT trapped on the filters was determined by liquid scintillation spectrometry (Ready Protein and Beckman automated using a Biomek 1000 (Beckman Instruments, Fullerton, Calif.) and were performed in triplicate in 0.8 ml total volume. Membrane suspension, 200 μl, (0.04-0.27 mg protein) and 200 μl of drug dilution in water were added to 400 μl of 67 mM Tris-HCl, pH 7.4, containing [^3 H]5-HT, pargyline, CaCl2, and L-ascorbic acid. Final concentrations of pargyline, CaCl2 and L-ascorbic acid were 10 μM, 3 mM and 0.1%, respectively. Tubes were incubated at 37° C. for 15 min or at 0° C. for 2 hours (binding equilibria were verified for both of these conditions), then rapidly filtered using a Brandel cell harvester (Model MB-48R; Brandel, Gaithersburg, Md.) through Whatman GF/B filters which had been presoaked in 0.5% polyethylenimine and precooled with ice-cold 50 mM Tris-HCl, pH 7.4. […]
(§2) Compounds of this invention were tested using the described in vitro assay. Results of the radioligand binding experiments are illustrated in Table I. The values reported in Table I are expressed as Ki calculated as described infra.

[2] = biological target: T2, cloned rat 5-HT2B receptor (Rattus norvegicus, UniProt P30994); test: Radioligand binding, [3H]5-HT, cloned rat 5-HT2B receptor (Table I)
T2 construct: expressed in transfected cells
Protocol: Radioligand Binding Studies
Membrane preparation from transformed cells. Suspension cells expressing the cloned rat 5-HT2B receptor were harvested by centrifugation at 2,200 ×g for 15 min at 4° C. Kursar, J. D., D. L. Nelson, D. B. Wainscott, M. L. Cohen, and M. Baez, Mol. Pharmacol., 42: 549-557 (1992). Membranes for the binding assays were prepared by vortexing the pellet in 50 mM Tris-HCl, pH 7.4 (0.5×10^9 cells/30 ml). The tissue suspension was then centrifuged at 39,800 ×g for 10 min at 4° C. This procedure was repeated for a total of three washes, with a 10 minute incubation at 37° C. between the first and second wash. The final pellet was homogenized in 67 mM Tris-HCl, pH 7.4 (at 20-40 and 12.5 million cells/ml, original cell number, for cells expressing low and relatively high levels of the 5-HT2B receptor, respectively) using a Tissumizer (Tekmar, Cincinnati, Ohio), setting 65 for 15 seconds.
[^3 H]5-HT binding studies. Binding assays were automated using a Biomek 1000 (Beckman instruments, Fullerton, Calif.) and were performed in triplicate in 0.8 ml total volume. Membrane suspension, 200 μl, (0.04-0.27 mg protein) and 200 μl of drug dilution in water were added to 400 μl of 67 mM Tris-HCl, pH 7.4, containing [^3 H]5-HT, pargyline, CaCl2, and L-ascorbic acid. Final concentrations of pargyline, CaCl2 and L-ascorbic acid were 10 μM, 3 mM and 0.1%, respectively. Tubes were incubated at 37° C. for 15 min or at 0° C. for 2 hours (binding equilibria were verified for both of these conditions), then rapidly filtered using a Brandel cell harvester (Model MB-48R; Brandel, Gaithersburg, Md.) through Whatman GF/B filters which had been presoaked in 0.5% polyethylenimine and precooled with ice-cold 50 mM Tris-HCl, pH 7.4. The filters were then washed rapidly four times with one ml ice-cold 50 mM Tris-HCl, pH 7.4. The amount of [^3 H]5-HT trapped on the filters was determined by liquid scintillation spectrometry (Ready Protein and Beckman automated using a Biomek 1000 (Beckman Instruments, Fullerton, Calif.) and were performed in triplicate in 0.8 ml total volume. Membrane suspension, 200 μl, (0.04-0.27 mg protein) and 200 μl of drug dilution in water were added to 400 μl of 67 mM Tris-HCl, pH 7.4, containing [^3 H]5-HT, pargyline, CaCl2, and L-ascorbic acid. Final concentrations of pargyline, CaCl2 and L-ascorbic acid were 10 μM, 3 mM and 0.1%, respectively. Tubes were incubated at 37° C. for 15 min or at 0° C. for 2 hours (binding equilibria were verified for both of these conditions), then rapidly filtered using a Brandel cell harvester (Model MB-48R; Brandel, Gaithersburg, Md.) through Whatman GF/B filters which had been presoaked in 0.5% polyethylenimine and precooled with ice-cold 50 mM Tris-HCl, pH 7.4. The filters were then washed rapidly four times with one ml ice-cold 50 mM Tris-HCl, pH 7.4. The amount of [^3 H]5-HT trapped on the filters was determined by liquid scintillation spectrometry (Ready Protein and Beckman determined for best fit to a one-site or a two-site binding model using a partial […]. De Lean, A., A. A. Hancock, and R. J. Lefkowitz, Mol. Pharmacol., 21:5-16 (1981). The following equation was used for a one-site binding model, [formula] where Bound=amount of [^3 H]5-HT specifically bound, Bmax =maximum number of binding sites, Kd =equilibrium dissociation constant and [L]=free concentration of [^3 H]5-HT, or a two-site binding model, [formula] where Bound=amount of [^3 H]5-HT specifically bound, Bmax1 =maximum number of high affinity binding sites, Bmax2 =maximum number of low affinity binding sites, Kd1 =equilibrium dissociation constant for the high affinity site, Kd2 =equilibrium dissociation constant for the low affinity site and [L]=free concentration of [^3 H]5-HT. […]

5-HT2C receptor [3] = biological target: T3, 5-HT2C receptor (Homo sapiens, UniProt P28335); test: Radioligand binding, Human 2C (Table I)
T3 sequence (P28335 33-458): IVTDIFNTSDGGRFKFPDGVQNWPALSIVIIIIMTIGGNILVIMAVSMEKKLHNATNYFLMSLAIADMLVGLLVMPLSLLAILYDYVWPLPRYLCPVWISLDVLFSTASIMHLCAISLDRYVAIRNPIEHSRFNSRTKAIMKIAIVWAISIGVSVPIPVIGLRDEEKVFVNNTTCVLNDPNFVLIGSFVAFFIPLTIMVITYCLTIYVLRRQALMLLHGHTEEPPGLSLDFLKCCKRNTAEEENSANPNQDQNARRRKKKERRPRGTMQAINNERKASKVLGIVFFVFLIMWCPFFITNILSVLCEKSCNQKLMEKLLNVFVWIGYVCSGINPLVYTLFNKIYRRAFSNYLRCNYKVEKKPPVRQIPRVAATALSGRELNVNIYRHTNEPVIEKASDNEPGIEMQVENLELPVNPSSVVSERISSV
Protocol: as §1, §2

5-HT2B receptor = 5-HT2B receptor (Homo sapiens, UniProt P41595); test: Radioligand binding, Human 2B (Table I)
Protocol: as §1, with “Tubes were incubated at 37° C. for 15 min or at 0° C. for 2 hours (binding equilibria were verified for both of these conditions), then rapidly filtered using a Brandel cell harvester (Model MB-48R; Brandel, Gaithersburg, Md.) through Whatman GF/B filters which had been presoaked in 0.5% polyethylenimine and precooled with ice-cold 50 mM Tris-HCl, pH 7.4. The filters were then washed rapidly four times with one ml ice-cold 50 mM Tris-HCl, pH 7.4.” left out

[4] = Rat 2C, Ki from IC50 by Cheng-Prusoff, read-out: Ki Rat 2C
[5] = cloned rat 5-HT2B receptor, [3H]5-HT, Ki from IC50 by Cheng-Prusoff, read-out: Ki Rat 2B
[6] = Human 2C, Ki from IC50 by Cheng-Prusoff, read-out: Ki Human 2C

T2 sequence (P30994 whole entry): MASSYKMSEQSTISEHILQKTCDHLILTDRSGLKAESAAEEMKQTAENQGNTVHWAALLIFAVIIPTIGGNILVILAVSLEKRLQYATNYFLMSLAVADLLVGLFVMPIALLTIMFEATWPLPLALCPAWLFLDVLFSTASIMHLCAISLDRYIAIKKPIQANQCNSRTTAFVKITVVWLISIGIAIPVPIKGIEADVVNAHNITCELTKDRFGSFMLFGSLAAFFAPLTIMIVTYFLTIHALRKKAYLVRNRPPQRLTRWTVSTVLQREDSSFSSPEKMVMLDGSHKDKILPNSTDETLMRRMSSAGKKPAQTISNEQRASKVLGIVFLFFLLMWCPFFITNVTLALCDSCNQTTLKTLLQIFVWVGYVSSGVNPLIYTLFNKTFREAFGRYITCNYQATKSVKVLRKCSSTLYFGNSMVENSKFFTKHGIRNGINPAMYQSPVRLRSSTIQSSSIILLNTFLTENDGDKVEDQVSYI
5-HT2B receptor, sequence (P41595 whole entry): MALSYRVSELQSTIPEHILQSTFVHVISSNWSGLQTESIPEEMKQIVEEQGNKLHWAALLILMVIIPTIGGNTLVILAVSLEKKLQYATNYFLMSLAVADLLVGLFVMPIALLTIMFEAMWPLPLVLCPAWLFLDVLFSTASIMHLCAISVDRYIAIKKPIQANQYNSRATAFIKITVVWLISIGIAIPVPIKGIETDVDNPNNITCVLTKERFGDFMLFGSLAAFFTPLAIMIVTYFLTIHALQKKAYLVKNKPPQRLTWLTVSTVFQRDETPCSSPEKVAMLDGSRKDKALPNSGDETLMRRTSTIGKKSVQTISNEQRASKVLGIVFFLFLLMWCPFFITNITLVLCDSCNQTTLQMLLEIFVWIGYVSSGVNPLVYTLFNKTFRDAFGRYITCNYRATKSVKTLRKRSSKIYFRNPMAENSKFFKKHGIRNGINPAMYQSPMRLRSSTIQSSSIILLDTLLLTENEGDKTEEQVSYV

Compound	pKi [2, 5]	pKi [2]	other results
Cc1ccc2c3c([nH]c2c1Br)CNCC3 [Example 1, 7-methyl-8-bromo-1,2,3,4-tetrahydro-9H-pyrido[3,4b]-indole]	8.50		pKi (5-HT2C receptor [1]; [4]): 7.85; pKi (5-HT2C receptor [3]; [6]): 7.74
COc1cccc2c3c([nH]c12)CNCC3 [Example 2, 8-methoxy-1,2,3,4-tetrahydro-9H-pyrido[3,4b]-indole]		7.46	
CCCN1CCc2c([nH]c3c(OC)cccc23)C1 [Example 3, 8-methoxy-2(N)-propy1,2,3,4-tetrahydro-9H-pyrido[3,4b]-indole]		6.94	
COc1cccc2c3c([nH]c12)CN(C)CC3 [Example 4, 8-methoxy-2(N)-methyl-1,2,3,4-tetrahydro-9H-pyrido[3,4b]-indole]		7.14	
COc1cccc2c3c([nH]c12)CN(CC1CC1)CC3 [Example 5, 8-methoxy-2(N)-cyclopropylmethyl-1,2,3,4-tetrahydro-9H-pyrido[3,4b]-indole]		7.01	
CN1CCc2c([nH]c3ccc(O)cc23)C1 [Example 6]	5.34		
Cc1ccc2c3c([nH]c2c1C)CNCC3 [Example 7, 7,8-dimethyl-1,2,3,4-tetrahydro-9H-pyrido[3,4b]-indole]	7.80		
Cc1cc(Br)c2[nH]c3c(c2c1)CCNC3 [Example 8, 6-methyl-8-bromo-1,2,3,4-tetrahydro-9H-pyrido[3,4b]-indole]	7.85		pKi (5-HT2B receptor; Human 2B, Ki from IC50 by Cheng-Prusoff, read-out: Ki Human 2B): 7.78; pKi (5-HT2C receptor [1]; [4]): 7.46; pKi (5-HT2C receptor [3]; [6]): 7.41
Fc1cc(F)c2[nH]c3c(c2c1)CCNC3 [Example 9, 6,8-difluoro-1,2,3,4-tetrahydro-9H-pyrido[3,4b]-indole]		7.24	
Brc1cccc2c3c([nH]c12)CNCC3 [Example 10, 8-bromo-1,2,3,4-tetrahydro-9H-pyrido[3,4b]-indole]		8.21	pKi (5-HT2B receptor): 8.01; pKi (5-HT2C receptor [1]): 7.65; pKi (5-HT2C receptor [3]): 7.88
